The numbers were not newly measured in article PMC11215771 (Journal of Medicinal Chemistry, 2024), which cites them from elsewhere.

The subject of this data set is BACE1. To be noted: cited from earlier work.

Consider `C[C@@H](NC(=O)c1cc(C(=O)N[C@@H](Cc2ccccc2)[C@H](O)CNC2CC2)cc(N(C)S(C)(=O)=O)c1)c1ccccc1` [C3], for which the IC50 entry is “nanomolar range”.
